Data reported in US20020169123A1, “Regulating apoptosis in TRAIL-resistant cancer cells, while protecting normal, non-cancerous cells” (THE TRUSTEES OF THE UNIVERSITY OF PENNSYLVANIA, priority 2001, published 2002).

Tests used:
normal human hepatocytes = conditions: Ozoren et al., 2000; cited from earlier work
[1] = system: normal esophageal epithelial EPC2 cells; experiment: effect of Ad-ILZ-TR derived TRAIL; format: cell-based; conditions: EPC2 cells in the presence of z-LEHD-FMK
Description: To make an adenovirus expressing extra-cellular portion of TRAIL (amino acids (Aa) 95 to 281), pAdTRACK/CMV and pAdEasy systems were used as previously described (He et al., Proc. Natl. Acad. Sci. USA 95:2509-2514 (1998)). In short, the extra-cellular portion of TRAIL was amplified by PCR (polymerase chain reaction). The amplified fragment was fused directly to the signal peptide of a mouse Ig κ chain, which is secreted into the media from the cells. Then, an isoleucine zipper (ILZ) fragment was inserted between the signal peptide and TRAIL to induce self-trimerization (Harbury et al., Science 262:1401-1407 (1993)). The final resulting construct was cloned into pAdTRACK/CMV, and then a recombinant plasmid was generated in BJ5183 E. coli by co-transforming PmeI-digested TRAIL-cloned pAdTRACK/CMV and pAdEASY.
The recombinant plasmid was digested with PacI, and was used for transfection into […] 293 cells using Superfect (QIAGEN, Valencia, Calif.). Approximately five (5) days after transfection, when comet-like patches of the green cells appeared, the cells were harvested. The viruses were amplified and purified as previously described (El-Deiry et al., Cell 75:817-825 (1993)). The infectivity of the viruses was checked by the observation of green fluorescence using a fluorescence microscope. […]

[2] = system: TRAIL-sensitive esophageal cancer cells; experiment: active-caspase 3 assay, effect of z-LEHD-FMK on TRAIL-sensitive cancer cells; format: cell-based, human; conditions: extent of apoptosis slightly reduced
Description: Next, to determine the effect of z-LEHD-FMK on TRAIL-sensitive esophageal cancer cells (i.e., could z-LEHD-FMK also protect TRAIL-sensitive esophageal cancer cells from apoptosis), an active-caspase 3 assay was performed, as described above in the assay shown in FIG. 4A.

[3] = system: EPC2 normal esophageal epithelial cells
Description: Normal human primary epithelial cells (EPC2, provided by Dr. Anil Rustgi, University of Pennsylvania) and primary human foreskin keratinocytes (HFK, provided by Dr. John C. Ansel, Emory University), were grown in Keratinocyte-SFM medium (Gibco BRL, Rockville, Md.) containing bovine pituitary extract (40 μg/mL) and epidermal growth factor (1 ng/mL). The primary epithelial cells were used at passage 4 or 5.
The N-terminal histidine (His) tagged recombinant human TRAIL (rhTRAIL, Thr-95 to Gly-281) was obtained from R&D Systems (Minneapolis, Minn.). A mouse monoclonal anti-6× His antibody (R&D Systems) was used for cross-linking the rhTRAIL. […] Cells were treated with TRAIL (50 ng/mL final concentration) and 1 μg/mL of anti-6× His (N-terrninal histidine antibody) for 4 hours or for 16 hours. The caspase inhibitor was used at a final concentration of 20 μM, and was added 2 hours prior to the addition of TRAIL. […] In the case of adriamycin, cells were pre-treated with adriamycin (0.5 μM final concentration) for 16 hours before the addition of TRAIL.
(§1) For detecting apoptosis mediated by TRAIL, an active-caspase 3 assay was performed using Cytofix/Cytoperm kit (Pharmingen, San Diego, Calif.), as previously described (Kim et al., Int. J. Oncol. 18:241-247 (2001)). Briefly, using standard techniques, 5×10^5 cells were seeded into a 6 well plate, after which, the cells were treated with TRAIL cross-linked with anti-6× His antibody. […] After washing, the cells were probed with 0.125 μg/μl of Phycoerythrin (PE)-conjugated goat anti-rabbit secondary antibody (Ab) (CALTAG Laboratories, Burlingame, Calif.) for 20 minutes in the dark. The intensity of PE was analyzed by flow cytometry using a Beckman-Coulter Epics Elite analyzer.

[4] = system: EPC2-GFP and TRAIL-sensitive TE2 mixed culture; experiment: active-caspase 3 assay in mixed culture; format: cell-based, human; conditions: TRAIL 4 hours with z-LEHD-FMK
Description: Finally, to confirm the observation that there was preferential protection of z-LEHD-FMK on normal esophageal epithelial cells in TRAIL-mediated apoptosis, but no similar protection afforded to TRAIL-sensitive esophageal cancer cells, both EPC2-GFP (2×10^5 cells) and TRAIL-sensitive TE2 (5×10^5 cells) were grown as a mixed culture in a 6-well plate. The cells were treated with TRAIL for 4 hours in the presence, or absence, of z-LEHD-FMK. An active-caspase 3 assay was performed, and the two populations within the mixed-cells were distinguished by the presence (EPC2-GFP), or absence (TE2), of GFP. […] Experiments were done in duplicate (mean value±SD).

[5] = system: TRAIL-resistant HCE4, TE3, and TE5 cells; experiment: active-caspase 3 assay, adriamycin plus TRAIL; format: cell-based, human; conditions: z-LEHD-FMK 20 μM added 2 hours before TRAIL
Description: Cells were treated with TRAIL (50 ng/mL final concentration) and 1 μg/mL of anti-6× His (N-terrninal histidine antibody) for 4 hours or for 16 hours. The caspase inhibitor was used at a final concentration of 20 μM, and was added 2 hours prior to the addition of TRAIL. When the cells were treated with both cycloheximide (CHX) and TRAIL, CHX (10 μg/mL final concentration) was added 6 hours before the addition of TRAIL. In the case of adriamycin, cells were pre-treated with adriamycin (0.5 μM final concentration) for 16 hours before the addition of TRAIL.
as §1
Accordingly, adriamycin was tested to determine whether its combination with TRAIL could induce synergistic cell killing in TRAIL-resistant esophageal cancer cells. TRAIL-resistant HCE4, TE3, and TE5 cells were pre-treated with 0.5 μM adriamycin for 16 hours, followed by incubation for 4 hours in the presence of TRAIL. z-LEHD-FMK (20 μM final concentration) was added 2 hours before the addition of TRAIL. An active-caspase 3 assay was used to determine whether apoptosis occurred.
Next, z-LEHD-FMK was tested in the HCE4, TE3 and TE5 cells to determine the protective effect of z-LEHD-FMK, if any, on the synergistic cell death driven by the combination of adriamycin with TRAIL.

**Q.** Which “rescue from TRAIL-mediated apoptosis” value (normal human hepatocytes) does the source give for “z-LEHD-FMK (HELM PEPTIDE1{[O=C(OCc1ccccc1)[*:2]].L.E.H.D.[FC[*:1]]}$$$$V2.0; SMILES CC(C)C[C@H](NC(=O)OCc1ccccc1)C(=O)N[C@@H](CCC(=O)O)C(=O)N[C@@H](Cc1c[nH]cn1)C(=O)N[C@@H](CC(=O)O)C(=O)CF)” here?
**A.** The value was “could rescue normal human hepatocytes”.

**Q.** And the “protection from cell death by Ad-ILZ-TR derived TRAIL” value [1]?
**A.** The value was “completely protected from cell death”.

**Q.** What about the “effect of z-LEHD-FMK on TRAIL-mediated apoptosis” value [2] of the same substance?
**A.** Its value is “still underwent apoptosis”.

**Q.** And the “protection from cell killing by TRAIL plus adriamycin” value ([3]; EPC2 cells in the presence of z-LEHD-FMK)?
**A.** The value was “almost completely protected from cell killing”.

**Q.** And the “protection from TRAIL-mediated apoptosis” value ([3]; EPC2 cells, TRAIL 50 ng/mL 4 hours, z-LEHD-FMK 20 μM added 2 hours before TRAIL)?
**A.** The value was “completely protected”.

**Q.** And the “TRAIL-mediated apoptosis in presence of z-LEHD-FMK, TE2 population” value ([4]; mixed culture with EPC2-GFP)?
**A.** The value was “continued to undergo apoptosis”.

**Q.** What about the “protection from TRAIL-mediated apoptosis, EPC2-GFP population” value ([4]; mixed culture with TE2) of the same substance?
**A.** The value was “almost completely protected”.

**Q.** And the “effect of z-LEHD-FMK on cell death by adriamycin plus TRAIL” value ([5]; HCE4 cells)?
**A.** The value was “still killed in a synergistic way”.

**Q.** What about the “effect of z-LEHD-FMK on cell death by adriamycin plus TRAIL” value ([5]; TE3 and TE5 cells) of the same substance?
**A.** The value was “almost completely blocked cell death”.
